Measurements: US11708381B2, “Inhibitors of androgen receptor signaling” (XAVIER UNIVERSITY OF LOUISIANA, priority 2016, dated 2023)
Where two headings read alike, the source gives them in different places.

Tests used:
Assay type in all cases: cell-based
[1] = system: LNCaP95 cells; assay: Antiproliferative activity, resazurin assay, LNCaP95 cells; details: enzalutamide-resistant LNCaP95 cells, 72 h, cell proliferation, read-out: IC50 (μM) LCaP95
Description: (§1) LNCaP95 and 22RV1 are prostate cancer cell lines that express high level of AR-V7 and other AR-Vs, and are enzalutamide-resistant. LNCaP95 cells were maintained in RPMI1640 medium with charcoal-stripped serum (CSS). 22Rv1 cells were maintained in RPMI1640 medium with 10% FBS. Cells were seeded in 96-well plates (5×10^3 cells/well) containing 50 μL growth medium for 24 hrs. After medium removal, 100 μL fresh medium containing individual compound at different concentrations was added to each well and incubated at 37° C. for 72 h. Then 20 μL of resazurin was added for 2 h before recording fluorescence at 560 nm (excitation) and 590 nm (emission) using a Victor microtiter plate fluorometer (Perkin-Elmer, USA). The IC50 was defined as the compound concentration required for inhibiting cell proliferation by 50%, in comparison with cells treated with the maximum amount of DMSO (0.25%) and considered as 100% viability.

[2] = system: 22RV1 cells; assay: Antiproliferative activity, resazurin assay, 22RV1 cells; details: for Inhibitory rate at 10^−6 M in 22RV1 cells: 72 h incubation; for IC50: enzalutamide-resistant 22RV1 cells, 72 h, cell proliferation
Description: as §1

[3] = system: AR; assay: Downregulation of AR in 22RV1 cells; details: 22RV1, enzalutamide-resistant prostate cancer cell line (FIG. 11)
[4] = system: AR; assay: Downregulation of AR in LNCaP95 cells; details: LNCaP95, enzalutamide-resistant prostate cancer cell line (FIG. 10)
[5] = system: AR-V7; assay: Downregulation of AR-V7 in LNCaP95 cells; details: LNCaP95, enzalutamide-resistant prostate cancer cell line (FIG. 10)
[6] = system: AR-V7; assay: Downregulation of AR-V7 in 22RV1 cells; details: 22RV1, enzalutamide-resistant prostate cancer cell line (FIG. 11)

Row | Molecule | IC50 ([1]; LNCaP-95) [µM] | IC50 ([2]; Homo sapiens) [µM] | Inhibitory rate at 10^−6 M in 22RV1 cells [2] [%] | further results
1 | O=C(Nc1ccc(C(F)(F)F)c(C(F)(F)F)c1)c1cc(F)ccc1O [drawing 30] | 0.13 | – | 15.7 | –
2 | O=C(Nc1ccc([N+](=O)[O-])cc1F)c1cc(F)ccc1O | 0.206 | 0.244 | 43.9 | –
3 | Niclosamide [reference compound] | – | – | 51.3 | IC50 [1]: 0.372 µM; IC50 [2]: 0.284 µM; downregulation of AR [3]: dose-dependent downregulation
4 | O=C(Nc1ccc(C(F)(F)F)c(C(F)(F)F)c1)c1cc(F)ccc1O [ARi 4] | – | – | – | downregulation of AR [4]: dose-dependent downregulation; downregulation of AR-V7 [5]: dose-dependent downregulation; downregulation of AR [3]: dose-dependent downregulation; downregulation of AR-V7 [6]: dose-dependent downregulation
5 | O=C(Nc1ccc(C(F)(F)F)cc1F)c1cc(F)ccc1O | 0.152 | 0.121 | 12.4 | –
6 | N#Cc1ccc(NC(=O)c2cc(F)ccc2O)c(F)c1 | 0.397 | 0.414 | 55.3 | –

Now from value to molecule, other results behind:

Row | IC50 ([1]; LNCaP-95) [µM] | IC50 ([2]; Homo sapiens) [µM] | Molecule | Inhibitory rate at 10^−6 M in 22RV1 cells [2] [%] | further results
7 | 0.161 | 0.195 | N#Cc1cc(NC(=O)c2cc(F)ccc2O)ccc1C(F)(F)F | 21.8 | –
8 | 0.199 | 0.382 | O=C(Nc1ccc(C(F)(F)F)cc1F)c1cc(F)c(F)cc1O | 52.7 | –
9 | 0.148 | 0.135 | O=C(Nc1ccc(C(F)(F)F)cc1Cl)c1cc(F)ccc1O | 14.5 | –
